Results: patent US20240140941A1, “DERIVATIVE OF 2,5-DIKETOPIPERAZINE COMPOUND, AND PREPARATION METHOD THEREFOR, PHARMACEUTICAL COMPOSITION THEREOF AND USE THEREOF” (DALIAN WZ PROBIOTICS AD HEALTH CO., LTD, priority 2020, published 2024)
Counter-ions that a name gives are not always drawn. Like-named read-outs stand apart in the source and are kept apart here.

Key:
NCI-H460 = test: Inhibition test on cell proliferation (MTT), NCI-H460; format: cell-based, human; settings: 72 hours of drug treatment, MTT, read-out: IC50 (nM) NCI-H460
Outline: (§1)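 Cells plated at 2000-6000 per well, allowed to adhere for 24 h, then exposed to serially diluted compound for 72 h at 37 °C, 5% CO2. Viability read by MTT reduction, with formazan dissolved in DMSO and absorbance taken at 490 nm. Inhibition rate calculated relative to untreated and zero-setting wells.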

HT-29 = test: Inhibition test on cell proliferation (MTT), HT-29; format: cell-based, human; settings: 72 hours of drug treatment
Protocol: (§2) Tumor cells (NCI-H460, BxPC-3, HT-29, HCC-LM3) in the logarithmic growth phase were digested, centrifuged, and the supernatants were removed. Cells were resuspended by adding fresh culture medium, and counted using a cell counting plate. 100 μL of culture medium (containing cells) was added to a 96-well plate according to the standard of 2000 to 6000 cells per well and incubated in an incubator (37° C., 5% CO2) for 24 hours. After the cells were completely adhered to the wall, the test sample and Plinabulin were diluted to different concentrations using fresh culture medium, and 4 wells were set for each concentration. After 72 hours of drug treatment, the culture medium was removed, and 20 μL of MTT at a concentration of 5 mg/mL was added to each well. After 3-4 hours in the incubator, the MTT was discarded, and 100 μL of DMSO was added to each well, and placed in a 96-well plate shaker to completely dissolve the purple formazan. Subsequently, the absorbance (OD value) was detected at a wavelength of 490 nm using a microplate reader. The experiment also required setting up zero-setting wells (blank culture medium, MTT, DMSO). Cell inhibition rate=1−(OD value of drug-dosed group−OD value of zero-setting group)/(OD value of blank group−OD value of zero-setting group)×100%.

HCC-LM3 = test: Inhibition test on cell proliferation (MTT), HCC-LM3; format: cell-based, human; settings: 72 hours of drug treatment, MTT, read-out: IC50 (nM) HCC-LM3
Protocol: as §2

[1] = Compound solubility experiment, Method 1: equilibrium solubility in pure water, LC-MS; format: physicochemical; settings: ultrapure water, 37±1° C., shaken 24 hours; for solubility at 24 h: 37 °C, thermodynamic from solid
Protocol: Method 1: A 1.5 mL brown EP tube was taken, about 1 mg of compound was weighed respectively, and 1 mL of ultrapure water was added thereto. The mixture was vortexed, and sonicated until the compound was no longer dissolved (the solution was turbid or had suspended particles). The mixture was put into an incubation shaker, maintained at a temperature of (37±1° C.), shaken at 100 r/min for 24 hours, so as to achieve full dissolution equilibrium. After 24 hours, the supernatant was quickly filtered through a 0.45 μm microporous membrane, and the initial filtrate was discarded. 200 μL of the renewed filtrate was taken and diluted with 200 μL of methanol. The assay was repeated at least three times. According to the chromatographic conditions, the sample was injected by LC-MS, and the peak area was measured and the equilibrium solubility of each 2,5-diketopiperazine derivative in pure water was calculated.

BxPC-3 = test: Inhibition test on cell proliferation (MTT), BxPC-3; format: cell-based, human; settings: 72 hours of drug treatment, MTT, read-out: IC50 (nM) BxPC-3
Outline: as §1

| Structure (SMILES) | IC50 (NCI-H460) | IC50 (HT-29) | IC50 (HCC-LM3) | solubility at 24 h [1] | IC50 (BxPC-3) | melting point | IC50 (NCI-H460; Homo sapiens, NCI-H460, 72 h) | IC50 (HT-29; Homo sapiens, HT-29, 72 h) | IC50 (HCC-LM3; Homo sapiens, HCCLM3, 72 h) | IC50 (BxPC-3; Homo sapiens, BXPC-3, 72 h) | Solubility [1] |
| --- | --- | --- | --- | --- | --- | --- | --- | --- | --- | --- | --- |
| CC(C)c1c(/C=c2\[nH]c(=O)/c(=C/c3cccc(Oc4ccc(F)cc4)c3)[nH]c2=O)ncn1CCCN1CCOCC1 [PLN-2-2] |  | 3.83 ± 0.43 nM | 5.58 ± 1.03 nM | < 0.5 µg/mL | 4.63 ± 0.16 nM | 194 to 195 °C | 5.25 ± 0.49 nM |  |  |  |  |
| O=C(c1ccc(F)cc1)c1cccc(/C=c2\[nH]c(=O)/c(=C/c3ncn(CCCN4CCOCC4)c3C3CC3)[nH]c2=O)c1 [PLN-2-3] |  |  |  | < 0.25 µg/mL |  |  | 4.9 ± 0.61 nM | 2.15 ± 0.33 nM | 6.31 ± 0.16 nM | 1.43 ± 0.95 nM |  |
| CC(C)c1c(/C=c2\[nH]c(=O)/c(=C/c3ccccc3)[nH]c2=O)ncn1CCCN1CCOCC1 [PLN-2-5, (3Z,6Z)-3-benzylidene-6-((5-isopropyl-1-(−3-morpholinyl)propylimidazol-4-yl)methylene)piperazine-2,5-dione] |  |  |  | < 0.5 µg/mL |  | 199.1 to 201.1 °C | 19.4 ± 1.63 nM | 11.8 ± 1.31 nM | 9.78 ± 2.21 nM | 12.5 ± 1.47 nM |  |
| CC(C)c1c(/C=c2\[nH]c(=O)/c(=C/c3cc(F)ccc3F)[nH]c2=O)ncn1CCCN1CCOCC1 [PLN-2-7, (3Z,6Z)-3-(2,5-difluorophenyl)methylene-6-((5-isopropyl-1-(3-morpholinyl)propylimidazol-4-yl)methylene)piperazine-2,5-dione] |  |  |  | < 0.5 µg/mL |  | 211.6 to 213.6 °C | 6.12 ± 0.43 nM | 4.03 ± 0.19 nM | 3.3 ± 1.88 nM | 4.92 ± 1.48 nM |  |
| COc1cccc(/C=c2\[nH]c(=O)/c(=C/c3ncn(CCCN4CCOCC4)c3C(C)C)[nH]c2=O)c1 [PLN-2-52, (3Z,6Z)-3-(3-Methoxyphenyl)methylene-6-((5-isopropyl-1-(3-morpholinyl)propylimidazol-4-yl)methylene)piperazine-2,5-dione] |  |  |  |  |  | 184 to 186 °C | 16.5 ± 3.48 nM | 8.49 ± 0.54 nM | 7.54 ± 0.68 nM | 13.9 ± 0.89 nM |  |
| CC(C)c1c(/C=c2\[nH]c(=O)/c(=C/c3cccc4ccccc34)[nH]c2=O)ncn1CCCN1CCOCC1 [PLN-2-54, (3Z,6Z)-3-(1-Naphthalenyl)methylene-6-((5-isopropyl-1-(3-morpholinyl)propylimidazol-4-yl)methylene)piperazine-2,5-dione] |  |  |  |  |  | 248 to 250 °C | 8.28 ± 0.91 nM | 6.55 ± 0.33 nM | 3.48 ± 2.6 nM | 5.74 ± 2.19 nM |  |
| C=CC(=O)N1CCN(CCCn2cnc(/C=c3\[nH]c(=O)/c(=C/c4cccc(F)c4)[nH]c3=O)c2C(C)C)CC1 [PLN-2-61-1] | 16.9 ± 1.29 nM | 14 ± 0.58 nM | 16.5 ± 5.66 nM |  | 9.37 ± 0.78 nM | 238.6 to 240.6 °C |  |  |  |  |  |
| CC(C)c1c(/C=c2\[nH]c(=O)/c(=C/c3cc(F)cc(F)c3)[nH]c2=O)ncn1CCCN1CCOCC1 [PLN-2-62] |  |  |  | < 0.5 µg/mL |  |  | 4.17 ± 0.75 nM | 3.49 ± 0.23 nM | 3.89 ± 0.16 nM | 3.44 ± 0.12 nM |  |
| CC(C)c1c(/C=c2\[nH]c(=O)/c(=C/c3ccc(F)c(F)c3)[nH]c2=O)ncn1CCCN1CCOCC1 [PLN-2-63] |  |  |  | < 0.5 µg/mL |  |  | 72.2 ± 4.86 nM |  | 64.9 ± 5.12 nM | 55.3 ± 3.42 nM |  |
| CC(C)(C)c1[nH]cnc1/C=c1\[nH]c(=O)/c(=C/c2ccccc2)[nH]c1=O [Plinabulin hydrochloride, reference compound] |  |  |  |  |  |  |  |  |  |  | 7654 ng/mL |

More lines, main results first:

| IC50 (NCI-H460) | IC50 (HT-29) | IC50 (HCC-LM3) | solubility at 24 h [1] | IC50 (BxPC-3) | melting point | IC50 (NCI-H460; Homo sapiens, NCI-H460, 72 h) | IC50 (HT-29; Homo sapiens, HT-29, 72 h) | IC50 (HCC-LM3; Homo sapiens, HCCLM3, 72 h) | IC50 (BxPC-3; Homo sapiens, BXPC-3, 72 h) | Structure (SMILES) | Solubility [1] |
| --- | --- | --- | --- | --- | --- | --- | --- | --- | --- | --- | --- |
| 3.45 ± 0.33 nM | 1.03 ± 0.11 nM | 4.2 ± 0.12 nM | < 0.5 µg/mL | 2.29 ± 0.82 nM |  |  |  |  |  | CC(C)c1c(/C=c2\[nH]c(=O)/c(=C/c3cccc(C(=O)c4ccc(F)cc4)c3)[nH]c2=O)ncn1CCCN1CCOCC1 [PLN-2-1, (3Z,6Z)-3-(3-(p-fluorobenzoyl)phenyl)methylene-6-((5-isopropyl-1-(3-morpholinyl)propylimidazol-4-yl)methylene)piperazine-2,5-dione] |  |
|  |  |  | < 0.5 µg/mL |  |  | 25.7 ± 2.62 nM |  |  |  | O=c1[nH]/c(=C\c2ncn(CCCN3CCOCC3)c2C2CC2)c(=O)[nH]/c1=C\c1cccc(Oc2ccc(F)cc2)c1 [PLN-2-4] |  |
|  |  |  | < 0.5 µg/mL |  |  | 8.51 ± 0.1 nM | 4.37 ± 0.62 nM | 5.13 ± 0.12 nM | 5.47 ± 0.57 nM | CC(C)c1c(/C=c2\[nH]c(=O)/c(=C/c3cccc(F)c3)[nH]c2=O)ncn1CCCN1CCOCC1 [PLN-2-9, (3Z,6Z)-3-fluorophenylmethylene-6-((5-isopropyl-1-(−3-morpholinyl)propylimidazol-4-yl)methylene)piperazine-2,5-dione] |  |
|  |  |  | < 0.5 µg/mL |  |  | 17.7 ± 5.18 nM | 10.6 ± 1.27 nM | 14.9 ± 0.22 nM | 8.97 ± 0.74 nM | O=c1[nH]/c(=C\c2ncn(CCCN3CCOCC3)c2C2CC2)c(=O)[nH]/c1=C\c1cccc(F)c1 [PLN-2-10, (3Z,6Z)-3-m-fluorophenylmethylene-6-((5-cyclopropyl-1-(−3-morpholinyl)propylimidazol-4-yl)methylene)piperazine-2,5-dione] |  |
|  |  |  |  |  | 251 to 253 °C | 11.6 ± 1.11 nM | 9.71 ± 0.74 nM | 6.55 ± 1.39 nM | 7.17 ± 0.52 nM | CC(C)c1c(/C=c2\[nH]c(=O)/c(=C/c3cccc(OC(F)(F)F)c3)[nH]c2=O)ncn1CCCN1CCOCC1 [PLN-2-53, (3Z,6Z)-3-(3-Tifluoromethoxyphenyl)methylene-6-((5-isopropyl-1-(3-morpholinyl)propylimidazol-4-yl)methylene)piperazine-2,5-dione] |  |
|  |  |  |  |  | 212 to 214 °C | 5.59 ± 1.4 nM | 2.62 ± 0.91 nM | 4.26 ± 0.25 nM | 3.24 ± 0.73 nM | CC(C)c1c(/C=c2\[nH]c(=O)/c(=C/c3cccc(F)c3)[nH]c2=O)ncn1CCCN1CCO[C@H](C)C1 [PLN-2-56, (3Z,6Z)-3-(3-Fluorophenyl)methylene-6-(5-isopropyl-1-(3-((R)-2-methylmorpholinyl)propylimidazol-4-yl)methylene)piperazine-2,5-dione] |  |
|  | 5.07 ± 2.12 nM |  |  |  | 211 to 213 °C | 16.6 ± 4.94 nM |  | 13.9 ± 2.5 nM | 8.56 ± 0.01 nM | CC(C)c1c(/C=c2\[nH]c(=O)/c(=C/c3cccc(F)c3)[nH]c2=O)ncn1CCCN1CCO[C@@H](C)C1 [PLN-2-57, (3Z,6Z)-3-(3-Fluorophenyl)methylene-6-(5-isopropyl-1-(3-((S)-2-methylmorpholinyl)propylimidazol-4-yl)methylene)piperazine-2,5-dione] |  |
|  |  |  |  |  | 182 to 184 °C | 19.6 ± 2.15 nM | 14.1 ± 0.22 nM | 31.2 ± 6.92 nM | 8 ± 1.15 nM | C=CC(=O)N1CCN(CCCn2cnc(/C=c3\[nH]c(=O)/c(=C/c4cccc(F)c4)[nH]c3=O)c2C(C)C)CC1 [PLN-2-61, (3Z,6Z)-3-(3-Fluorophenyl)methylene-6-(5-isopropyl-1-(3-(4-(acryloyl)piperazinyl)propylimidazol-4-yl)methylene)piperazine-2,5-dione] |  |
